Assay results from US20260159512A1, “BCAT2 INHIBITORS” (AGIOS PHARMACEUTICALS, INC., priority 2021, published 2026).

Assays:
Conditions in all cases: average where tested multiple times
BCAT2 [1] = molecular target: T1, BCAT2 (Homo sapiens, UniProt O15382); experiment: BCAT2 in vitro cell inhibition using engineered A549 cells (KMV cell assay, 13C6-KMV by LC-MS/MS); format: cell-based; set-up: The result was an engineered A549 cell line that expressed endogenous BCAT2; endogenous in cells; host or cells: A549 cells with MUT and BCAT1 knocked out by CRISPR/CAS9; key to BCAT2 Cell Inhibition: A: less than or equal to 0.100 μM; B: greater than 0.100 and less than or equal to 0.500 μM; C: greater than 0.500 and less than or equal to 1.000 μM; d: greater than 1.000 μM; E: no fit
T1 sequence (O15382 28-392): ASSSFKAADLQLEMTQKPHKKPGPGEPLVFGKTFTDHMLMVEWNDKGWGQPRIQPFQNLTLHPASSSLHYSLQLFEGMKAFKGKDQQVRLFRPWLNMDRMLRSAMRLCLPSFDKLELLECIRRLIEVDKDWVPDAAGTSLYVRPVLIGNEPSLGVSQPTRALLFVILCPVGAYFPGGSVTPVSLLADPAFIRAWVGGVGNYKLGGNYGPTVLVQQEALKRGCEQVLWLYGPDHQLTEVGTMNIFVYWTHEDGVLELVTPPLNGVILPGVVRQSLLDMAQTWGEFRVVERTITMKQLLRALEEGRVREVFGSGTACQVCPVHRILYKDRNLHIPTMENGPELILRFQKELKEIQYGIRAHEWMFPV

hBCAT1 = molecular target: T2, hBCAT1 (Homo sapiens, UniProt P54687); experiment: BCAT1 in vitro enzyme inhibition assay (resazurin/diaphorase-coupled fluorescence); format: biochemical
T2 sequence (P54687 1-386): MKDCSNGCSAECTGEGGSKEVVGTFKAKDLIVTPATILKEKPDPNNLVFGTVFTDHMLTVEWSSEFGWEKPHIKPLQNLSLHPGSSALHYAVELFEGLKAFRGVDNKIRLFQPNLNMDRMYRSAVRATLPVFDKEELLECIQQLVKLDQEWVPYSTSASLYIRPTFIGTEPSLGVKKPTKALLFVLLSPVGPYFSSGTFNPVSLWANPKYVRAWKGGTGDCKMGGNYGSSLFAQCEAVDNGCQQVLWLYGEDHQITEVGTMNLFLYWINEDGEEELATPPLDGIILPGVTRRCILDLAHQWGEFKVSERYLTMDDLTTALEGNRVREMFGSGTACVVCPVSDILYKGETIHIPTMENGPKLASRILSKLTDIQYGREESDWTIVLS
Procedure: BCAT1 In Vitro Enzyme Inhibition Assay
Meanwhile the Substrate Mix was prepared.
Test Compound Preparation:
Test compounds were prepared at 50× final concentration in DMSO, 1 to 3 dilutions were made for 10 points. The compounds were added to the assay as a 1 to 50 dilution (1 μL in 50 μL) to yield a top assay final concentration of 100 μM, decreasing 3-fold for 10 points. […] All tests were performed in technical duplicate.
Where a compound was tested multiple times, the average value of the tests is reported.

BCAT2 [2] = molecular target: T1, BCAT2; experiment: BCAT2 in vitro enzyme inhibition assay (resazurin/diaphorase-coupled fluorescence); format: biochemical
In short: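 Coupled fluorescence readout: glutamate formed from L-leucine/α-ketoglutarate transamination drives GDH/NAD/diaphorase reduction of resazurin (Ex 540/Em 590). Human BCAT2 was first exposed 1 h at room temperature to compound, top final 100 μM in 3-fold, 10-point series; substrate reaction ran 1 h before SDS quench, in technical duplicate with DMSO max and enzyme-free min controls.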

| Compound | IC50 (BCAT2 [1]) [nM] | IC50 (hBCAT1) [nM] | IC50 (BCAT2 [2]) [nM] | BCAT2 Cell Inhibition (BCAT2 [1]) |
| --- | --- | --- | --- | --- |
| O=C(N[C@@H]1CCCC[C@H](n2c(-c3ccccc3F)nc3cnc(-c4nnc[nH]4)cc32)C1)c1ncc(Cl)s1 (single isomer, unassigned) [Example 87, 5-chloro-N-(3-(2-(2-fluorophenyl)-6-(4H-1,2,4-triazol-3-yl)-1H-imidazo[4,5-c]pyridin-1-yl)cycloheptyl)thiazole-2-carboxamide] | 100 to 500 | 1000 to 5000 | ≤ 100 | – |
| O=C(N[C@H]1CCC[C@@H](n2c(C3CCCCO3)nc3cnc(-c4nc[nH]n4)cc32)C1)c1ncc(Cl)s1 (single isomer, unassigned) [Example 89] | 100 to 500 | 500 to 1000 | ≤ 100 | – |
| O=C(N[C@H]1CCC[C@@H](n2c(C3CCCOC3)nc3cnc(-c4nc[nH]n4)cc32)C1)c1ncc(Cl)s1 (single isomer, unassigned) [Example 102] | > 1000 | 1000 to 5000 | ≤ 100 | – |
| O=C(N[C@H]1CCC[C@@H](n2c(C3CCCOC3)nc3cnc(-c4nc[nH]n4)cc32)C1)c1ncc(Cl)s1 (single isomer, unassigned) [Example 103] | 100 to 500 | 500 to 1000 | ≤ 100 | – |
| O=C(N[C@H]1C[C@H](O)C[C@@H](n2c(-c3ccccc3F)nc3cnc(-n4nccn4)cc32)C1)c1ncc(C(F)F)s1 (single isomer, unassigned) [Example 108] | ≤ 100 | < 500 | ≤ 100 | – |
| O=C(N[C@H]1C[C@H](O)C[C@@H](n2c(-c3ccccc3F)nc3cnc(-n4nccn4)cc32)C1)c1ncc(Cl)s1 (single isomer, unassigned) [Example 110] | ≤ 100 | < 500 | ≤ 100 | – |
| O=C(N[C@H]1CCC[C@@H](n2c(-c3ccccc3F)nc3cnc(-n4nccn4)cc32)[C@@H]1O)c1ncc(Cl)s1 (single isomer, unassigned) [Example 113] | ≤ 100 | < 500 | ≤ 100 | – |
| CN1C[C@@H](NC(=O)c2ncc(Cl)s2)C[C@@H](n2c(-c3ccccc3F)nc3cnc(-c4nc[nH]n4)cc32)C1 (single isomer, unassigned) [Example 133] | > 1000 | 1000 to 5000 | 100 to 500 | – |
| CN1C[C@H](NC(=O)c2ncc(Cl)s2)C[C@H](n2c(-c3ccccc3F)nc3cnc(-c4nc[nH]n4)cc32)C1 (single isomer, unassigned) [Example 134] | ≤ 100 | < 500 | ≤ 100 | – |
| CC(C)Cc1nc2cnc(-n3nccn3)cc2n1[C@@H]1COC[C@H](NC(=O)c2ccc(Cl)s2)C1 (single isomer, unassigned) [Example 141] | ≤ 100 | < 500 | ≤ 100 | – |
| O=C(N[C@H]1CCC[C@@H](n2c(-c3ncccc3F)nc3cnc(N4CCC4)cc32)C1)c1ccc(Br)s1 [Example 300] | – | > 5000 | > 1000 | – |
| CC(C)Cc1nc2cnc(-c3cccc4ccoc34)cc2n1[C@@H]1CCC[C@H](NC(=O)c2ncc(Cl)s2)C1 [Example 327, N-((1S,3R)-3-(6-(benzofuran-7-yl)-2-isobutyl-1H-imidazo[4,5-c]pyridin-1-yl)cyclohexyl)-5-chlorothiazole-2-carboxamide] | – | 1000 to 5000 | 100 to 500 | – |
| CC(C)Cc1nc2cnc(-n3nccn3)cc2n1[C@H]1CCC[C@@H](NC(=O)c2ccc(Cl)s2)[C@@H]1O [Example 394, 5-chloro-N-((1R,2S,3S)-2-hydroxy-3-(2-isobutyl-6-(2H-1,2,3-triazol-2-yl)-1H-imidazo[4,5-c]pyridin-1-yl)cyclohexyl)thiophene-2-carboxamide] | – | 1000 to 5000 | > 1000 | – |

Further lines, results first:

| IC50 (BCAT2 [1]) [nM] | IC50 (hBCAT1) [nM] | IC50 (BCAT2 [2]) [nM] | BCAT2 Cell Inhibition (BCAT2 [1]) | Compound |
| --- | --- | --- | --- | --- |
| ≤ 100 | < 500 | ≤ 100 | – | O=C(N[C@H]1CCCC[C@@H](n2c(-c3ccccc3F)nc3cnc(-c4nnc[nH]4)cc32)C1)c1ncc(Cl)s1 (single isomer, unassigned) [Example 88, 5-chloro-N-(3-(2-(2-fluorophenyl)-6-(4H-1,2,4-triazol-3-yl)-1H-imidazo[4,5-c]pyridin-1-yl)cycloheptyl)thiazole-2-carboxamide] |
| 100 to 500 | < 500 | ≤ 100 | – | O=C(N[C@H]1CCC[C@@H](n2c(C3CCCCO3)nc3cnc(-c4nc[nH]n4)cc32)C1)c1ncc(Cl)s1 (single isomer, unassigned) [Example 90] |
| 500 to 1000 | < 500 | 100 to 500 | – | O=C(N[C@@H]1C[C@@H](O)C[C@H](n2c(-c3ccccc3F)nc3cnc(-n4nccn4)cc32)C1)c1ncc(C(F)F)s1 (single isomer, unassigned) [Example 107] |
| 100 to 500 | < 500 | 100 to 500 | – | O=C(N[C@@H]1C[C@@H](O)C[C@H](n2c(-c3ccccc3F)nc3cnc(-n4nccn4)cc32)C1)c1ncc(Cl)s1 (single isomer, unassigned) [Example 111] |
| – | > 5000 | > 1000 | E | CC(C)Cc1nc2cnc(-c3nc[nH]n3)cc2n1[C@@H]1C[C@H](NC(=O)c2ncc(Cl)s2)CN(C)C1 (single isomer, unassigned) [Example 135] |
| ≤ 100 | < 500 | ≤ 100 | – | CC(C)Cc1nc2cnc(-c3nc[nH]n3)cc2n1[C@H]1C[C@@H](NC(=O)c2ncc(Cl)s2)CN(C)C1 (single isomer, unassigned) [Example 136] |
| 100 to 500 | 500 to 1000 | ≤ 100 | – | O=C(NC1COCC(n2c(-c3ncccc3F)nc3cnc(-n4nccn4)cc32)C1)c1ncc(C(F)F)s1 (single isomer, unassigned) [Example 138, 5-(difluoromethyl)-N-(5-(2-(3-fluoropyridin-2-yl)-6-(2H-1,2,3-triazol-2-yl)-1H-imidazo[4,5-c]pyridin-1-yl)tetrahydro-2H-pyran-3-yl)thiazole-2-carboxamide] |
| – | > 5000 | > 1000 | E | O=C(NC1COCC(n2c(-c3ncccc3F)nc3cnc(-n4nccn4)cc32)C1)c1ncc(C(F)F)s1 (single isomer, unassigned) [Example 139, 5-(difluoromethyl)-N-(5-(2-(3-fluoropyridin-2-yl)-6-(2H-1,2,3-triazol-2-yl)-1H-imidazo[4,5-c]pyridin-1-yl)tetrahydro-2H-pyran-3-yl)thiazole-2-carboxamide] |
| – | > 5000 | > 1000 | – | O=C(N[C@H]1CCC[C@@H](n2c(-c3ccccc3F)nc3cnc(N4CCC4)cc32)C1)c1ccc(Br)s1 [Example 301, N-((1S,3R)-3-(6-(azetidin-1-yl)-2-(2-fluorophenyl)-1H-imidazo[4,5-c]pyridin-1-yl)cyclohexyl)-5-bromothiophene-2-carboxamide] |
| – | 1000 to 5000 | 100 to 500 | – | Cc1nsc(-c2cc3c(cn2)nc(CC(C)C)n3[C@@H]2CCC[C@H](NC(=O)c3ncc(Cl)s3)C2)n1 [Example 336, 5-chloro-N-((1S,3R)-3-(2-isobutyl-6-(3-methyl-1,2,4-thiadiazol-5-yl)-1H-imidazo[4,5-c]pyridin-1-yl)cyclohexyl)thiazole-2-carboxamide] |
| – | < 500 | ≤ 100 | – | O=C(N[C@H]1CCC[C@@H](n2c(N3CCCCC3)nc3cnc(-c4nc[nH]n4)cc32)C1)c1ccc(Cl)s1 [Example 372, 5-chloro-N-((1S,3R)-3-(2-(piperidin-1-yl)-6-(1H-1,2,4-triazol-3-yl)-1H-imidazo[4,5-c]pyridin-1-yl)cyclohexyl)thiophene-2-carboxamide] |
